Assay results reported in patent US11260079B2, “Dosing regimens for the mobilization of hematopoietic stem and progenitor cells” (Magenta Therapeutics, Inc., priority 2017, dated 2022).

Experiments:
[1] = test system: CD34^+ hematopoietic stem and progenitor cells; settings: Rhesus monkeys; plerixafor 1 mg/kg subcutaneously; median value
Description: (§1) Male rhesus macaques were treated with AMD3100 alone or in combination with Gro-β T. Blood was collected immediately prior to and 0.5, 1, 2, 4 and 24 hours after treatment and analyzed by multicolor flow cytometry to quantitate HSPC numbers. Additional aliquots of mobilized blood were plated in methylcellulose and CFU were enumerated seven days later.
(§2) The data shown in FIGS. 7 and 8 include the percentage of whole blood accounted for by CD34^+ hematopoietic stem and progenitor cells for each treatment group. Absolute numbers and fold change in CD34^+ cells per μL of peripheral blood were quantified with a single platform quantitative method. Data shown in FIGS. 7 and 8 are expressed as mean±SEM and represent 5 animals per group. Statistical significance was determined based on 2-way ANOVA with post-hoc Dunnett's multiple comparisons test (* p<0.05, ** p<0.01, **** p<0.0001).
as §2, with “9” for “7”, “10” for “8”, “CD34^+ CD90^+ CD45RA^−” for “CD34^+”, “are shown.” for “were quantified with a single platform quantitative method.”, “p<0.05. **p<0.01, *** p<0.001,” for “p<0.05, ** p<0.01,”
Additional data summarizing the mobilization of CD34^+ cells (e.g., CD34^+ CD90^+ CD45RA^− cells) in Rhesus monkeys using various doses of Gro-beta T and AMD3100 are reported in TABLES 8-11, below. Quantities are reported in TABLES 8-11 using the following notation: “Median value (Minimum value observed−maximum value observed).”

[2] = test system: white blood cells, neutrophils, lymphocytes and monocytes; settings: Rhesus monkeys; plerixafor 1 mg/kg subcutaneously; median value
Description: as §1
Animals were mobilized with AMD3100 alone or in combination with Gro-β T. Peripheral blood was collected at the time points shown and white blood cells enumerated on a HESKA Hematology Analyzer. Total number of white blood cells, neutrophils, lymphocytes and monocytes per μL of peripheral blood were determined. Data shown in FIGS. 2-5 are expressed as mean±SEM and represent 5 animals per group. Statistical significance was determined based on 2-way ANOVA with post-hoc Dunnett's multiple comparisons test (** p<0.01).

[3] = test system: NOD scid gamma (NSG) mice; assay: Xenograft GVHD model; format: in vivo; settings: for numbers of T-cells as compared to mice transplanted with Gro-β T and AMD3100-mobilized PBMCs: NSG mice, day 14 post-transplant; for mice died of aGVHD at day 24 / mice remained alive at day 60 post-transplant: sublethally irradiated NSG mice transplanted with 6×10^6 mobilized PBMCs
Description: To assess whether these immunosuppressive cells may prevent GVHD, we developed a xenograft GVHD model in NOD scid gamma (NSG) mice, which are immunodeficient mice. Gro-β T and AMD3100 mobilized peripheral blood (6×10^6 PBMCs) containing a high percentage of CD34^dim cells were injected into sublethally irradiated NSG mice. This was compared to unmobilized primate PBMCs (6×10^6 PBMCs) containing a relatively low numbers of CD34^dim cells and G-CSF mobilized primate PBMCs (6×10^6 PBMCs).

[4] = test system: hematopoietic stem and progenitor cell mobilization; settings: cited from earlier work; for potency of hematopoietic stem and progenitor cell mobilization relative to Gro-β: described in U.S. Pat. Nos. 6,080,398 and 6,447,766
[5] = test system: stem and progenitor cells (LT-HSC); assay: Mobilization of stem and progenitor cells in mice; format: in vivo; settings: 15 minutes after a single injection
CD34^dim cells = assay: Mobilization of CD34^dim cells, flow cytometry; format: in vivo; settings: Rhesus macaques; 4 hours after the last dose of G-CSF; n=3
Description: Cells were mobilized according to the method of Example 1. A sample of peripheral blood was tested using a flow cytometer for the markers CD34, CD11b, CD14, CD16, CD45, and SSC.
Rhesus macaques were treated with Gro-β T, […], Gro-β T and AMD3100, or G-CSF alone. A sample of peripheral blood was tested using a flow cytometry.

c1cc(CN2CCCNCCNCCCNCC2)ccc1CN1CCCNCCNCCCNCC1 [plerixafor, 1,1′-[1,4-phenylenebis(methylene)]-bis-1,4,8,11-tetra-azacyclotetradecane]
Fold increase vs. baseline following sc administration of AMD3100: CD34^+ [1]: 9.1 fold
Fold increase vs. baseline following sc administration of AMD3100: CD34^+ CD90^+ CD54RA^− [1]: 14.9 fold
Quantity of cells observed 4 hours following sc administration of AMD3100: CD34^+ [1]: 41054
Quantity of cells observed 4 hours following sc administration of AMD3100: CD34^+ CD90^+ CD54RA^− [1]: 14820
Ratio of fold increase of CD34^+ CD90^+ CD45RA^− cells to other cell populations: CD34^+ [1]: 1.4
Ratio of fold increase of CD34^+ CD90^+ CD45RA^− cells to other cell populations: Lymphocytes [1]: 5.7
Ratio of fold increase of CD34^+ CD90^+ CD45RA^− cells to other cell populations: Monocytes [1]: 1.6
Ratio of fold increase of CD34^+ CD90^+ CD45RA^− cells to other cell populations: Neutrophils [1]: 3.0
Ratio of fold increase of CD34^+ CD90^+ CD45RA^− cells to other cell populations: WBCs [1]: 3.7
Ratio of fold increase of CD34^+ cells to other cell populations: CD34^+ CD90^+ CD54RA^− [1]: 0.7
Ratio of fold increase of CD34^+ cells to other cell populations: Lymphocytes [1]: 4.0
Ratio of fold increase of CD34^+ cells to other cell populations: Monocytes [1]: 1.2
Ratio of fold increase of CD34^+ cells to other cell populations: Neutrophils [1]: 2.1
Ratio of fold increase of CD34^+ cells to other cell populations: WBCs [1]: 2.3
Ratio of quantity of CD34^+ CD90^+ CD45RA^− cells to other cell populations: CD34^+ [1]: 0.352
Ratio of quantity of CD34^+ CD90^+ CD45RA^− cells to other cell populations: Lymphocytes [1]: 0.0011
Ratio of quantity of CD34^+ CD90^+ CD45RA^− cells to other cell populations: Monocytes [1]: 0.0039
Ratio of quantity of CD34^+ CD90^+ CD45RA^− cells to other cell populations: Neutrophils [1]: 0.0006
Ratio of quantity of CD34^+ CD90^+ CD45RA^− cells to other cell populations: WBCs [1]: 0.0003
Ratio of quantity of CD34^+ cells to other cell populations: CD34^+ CD90^+ CD54RA^− [1]: 2.838
Ratio of quantity of CD34^+ cells to other cell populations: Lymphocytes [1]: 0.0025
Ratio of quantity of CD34^+ cells to other cell populations: Monocytes [1]: 0.0111
Ratio of quantity of CD34^+ cells to other cell populations: Neutrophils [1]: 0.0015
Ratio of quantity of CD34^+ cells to other cell populations: WBCs [1]: 0.0009
Fold increase vs. baseline following sc administration of AMD3100: Lymphocytes [2]: 2.5 fold
Fold increase vs. baseline following sc administration of AMD3100: Monocytes [2]: 7.9 fold
Fold increase vs. baseline following sc administration of AMD3100: Neutrophils [2]: 5.0 fold
Fold increase vs. baseline following sc administration of AMD3100: WBCs [2]: 2.3 fold
Quantity of cells observed 4 hours following sc administration of AMD3100: Lymphocytes [2]: 1.35E+07
Quantity of cells observed 4 hours following sc administration of AMD3100: Monocytes [2]: 3.10E+06
Quantity of cells observed 4 hours following sc administration of AMD3100: Neutrophils [2]: 2.10E+07
Quantity of cells observed 4 hours following sc administration of AMD3100: WBCs [2]: 3.90E+07
numbers of T-cells as compared to mice transplanted with Gro-β T and AMD3100-mobilized PBMCs [3]: approximately 60 fold
mice died of aGVHD at day 24 [3]: 5/16
mice remained alive at day 60 post-transplant [3]: 10/16

Gro-β N69D: variant of Gro-β with aspartic acid in place of asparagine at position 69 (SEQ ID NO: 3)
potency of hematopoietic stem and progenitor cell mobilization relative to Gro-β [4]: superior potency

Gro-β T N65D: variant of Gro-β T with aspartic acid in place of asparagine at position 65 (SEQ ID NO: 4)
potency of hematopoietic stem and progenitor cell mobilization relative to Gro-β T ([4]; described in U.S. Pat. No. 6,447,766): substantially greater than that of Gro-β T

Gro-β T: CXCR2 agonist; Gro-β with deletion of the first four amino acids from the N-terminus (SEQ ID NO: 2)
mobilization of stem and progenitor cells [5]: rapid mobilization
potency of hematopoietic stem and progenitor cell mobilization relative to Gro-β [4]: superior to that of Gro-β by multiple orders of magnitude

B1: G-CSF: Filgrastim (G-CSF), most common clinical hematopoietic stem cell mobilization protocol (protein, chains of the INN, looked up)
chain: MTPLGPASSLPQSFLLKCLEQVRKIQGDGAALQEKLCATYKLCHPEELVLLGHSLGIPWAPLSSCPSQALQLAGCLSQLHSGLFLYQGLLQALEGISPELGPTLDTLQLDVADFATTIWQQMEELGMAPALQPTQGAMPAFASAFQRRAGGVLVASHLQSFLEVSYRVLRHLAQP
increase over baseline in the number of CD34^dim cells (CD34^dim cells): about a nine-fold increase
numbers of T-cells as compared to mice transplanted with Gro-β T and AMD3100-mobilized PBMCs [3]: approximately 10 fold
mice died of aGVHD at day 24 [3]: 3/16
mice remained alive at day 60 post-transplant [3]: 11/16
